Structures can show the parent of a compound that is named as a salt.
Tested on: guinea-pig teania coli
Test: Pharmacological test I: calcium-antagonistic activity, inhibition of Ca++-induced contraction of isolated guinea-pig teania coli
Conditions: Cavia porcellus, 5 min, Ca++-free-high-K Krebs, 5 min exposure before CaCl2 (3×10^-4 M), 32° C., read-out: Calcium-antagonistic activity IC50 (concentration eliciting 50% inhibition of Ca++-induced contraction)
Protocol: The action potentials on the smooth muscles of uterus, teania coli and portal vein are dependent on calcium ion, and therefore these smooth muscle preparations are useful for screening of calcium antagonists. We measured the calcium-antagonistic activity of the compounds by the method using guinea-pig teania coli preparation.
Isolated guinea-pig teania coli was suspended in a organ bath filled with Krebs solution at 32° C. and bubbled with 5% carbon dioxide in oxygen. After equilibration, the muscle was washed with Ca^++ -free Krebs solution, and when the muscle had relaxed to the basal level, it was suspended in Ca^++ -free-high-K Krebs solution.
The muscle was exposed to test compounds for 5 minutes before addition of CaCl2, and the contraction induced by CaCl2 (3×10^-4 M) was recorded isotonically. The calcium-antagonistic activity was represented by the concentration of test compound which elicited 50% inhibition of Ca^++ -induced contraction (IC50).

Compound	IC50 [nM]
COc1ccc(CCN(C)CCCCOc2ccc(C3(SC)Sc4ccccc4N(C)C3=O)cc2)cc1OC (centres unmarked) [compound 103, 3,4-Dihydro-4-methyl-2-[4-[4-(N-methyl-3,4-dimethoxyphenethylamino)butoxy]phenyl]-2-methylthiol-3-oxo-2H-1,4l-benzothiazine hydrochloride]	530
COc1ccc(OC)c(C2(CCCN(C)CCc3cc(OC)c(OC)c(OC)c3)Sc3ccccc3N(C)C2=O)c1 (centres unmarked) [compound 83, 3,4-Dihydro-2-(2,5-dimethoxyphenyl)-4-methyl-2-[3-(N-methyl-3,4,5-trimethoxyphenethylamino)propyl[-3-oxo-2H-1,4-benzothiazine oxalate]	860
COc1ccc(OC)c(C2(CCCN(C)C3CCCCC3)Sc3ccccc3N(C)C2=O)c1 (centres unmarked) [compound 80, 3,4-Dihydro-2-(2,5-dimethoxyphenyl)-4-methyl-2-[3-(N-methylcyclohexylamino)propyl]-3-oxo-2H-1,4-benzothiazine oxalate]	710
COc1ccc(OCCCCN(C)CCc2cc(OC)c(OC)c(OC)c2)c(C2(SC)Sc3ccccc3N(C)C2=O)c1 (centres unmarked) [compound 142, 3,4-Dihydro-2-[5-methoxy-2-[4-(N-methyl-3,4,5-trimethoxyphenethylamino)butoxy]phenyl]-4-methyl-2-methylthio-3-oxo-2H-1,4-benzothiazine hydrochloride]	630
COc1ccc(OCCCCN(C)CCOc2ccc3c(c2)OCO3)c(C2(OC)Sc3ccccc3N(C)C2=O)c1 (centres unmarked) [compound 148, 3,4-Dihydro-2-methoxy-2-[5-methoxy-2-[4-[N-methyl-2-(3,4-methylenedioxyphenoxy)ethylamino]butoxy]phenyl]-4-methyl-3-oxo-2H-1,4-benzothiazine hydrochloride]	380
COc1ccc(OCCCCN(C)CCOc2ccc3c(c2)OCO3)c(C2(SC)Sc3ccccc3N(C)C2=O)c1 (centres unmarked) [compound 150, 3,4-Dihydro-2-[5-methoxy-2-[4-[N-methyl-2-(3,4-methylenedioxyphenoxy)ethylamino]butoxy]phenyl]-4-methyl-2-methylthio-3-oxo-2H-1,4-benzothiazine hydrochloride hemihydrate]	890
COc1ccc(OCCCN(C)CCc2ccc(OC)c(OC)c2)c(C2(SC)Sc3ccccc3N(C)C2=O)c1 (centres unmarked) [compound 131, 3,4-Dihydro-2-[5-methoxy-2-[3-(N-methyl-3,4-dimethoxyphenethylamino)propoxy]phenyl]-4-methyl-2-methylthio-3-oxo-2H-1,4-benzothiazine hydrochloride]	630
COc1ccc(OCCCN(C)CCOc2ccc3c(c2)OCO3)c(C2(OC)Sc3ccccc3N(C)C2=O)c1 (centres unmarked) [compound 147, 3,4-Dihydro-2-methoxy-2-[5-methoxy-2-[3-[N-methyl-2-(3,4-methylenedioxyphenoxy)ethylamino]propoxy]phenyl]-4-methyl-3-oxo-2H-1,4-benzothiazine hydrochloride]	420
